Literature values, collected in PubChem BioAssay AID1259409 (Chemical Carcinogenesis Research Information System (CCRIS), 2018).

System: rodent chemically induced tumor inhibition, incidence and multiplicity
Assay: CCRIS tumor inhibitor studies

For `O=C1O[C@H]([C@@H](O)CO)C(O)=C1O`, the “tumour outcome (control, treated, inhibition, significance)” value (Carcinogen: DIETHYLNITROSAMINE, 55-18-5, Dose [Inhibitor]: 0, 15 G/L IN DRINKING WATER FOR DURATION OF STUDY BEGINNING 1 D PRIOR TO FIRST CARCINOGEN DOSE (STUDY DURATION: 6 MO), Route [Inhibitor]: ORAL, Species: RAT, Strain/Sex: BD6/FEMALE, Target Tissue: Type of Lesion: ESOPHAGUS: TUMOR, Dose [Carcinogen]: 80 MG/KG BW 1/WK FOR 10 WK, Promoter: NONE USED) is given as 35%, 24%, 31%, not significant, the “tumour outcome (control, treated, inhibition, significance)” value (Carcinogen: DIETHYLNITROSAMINE, 55-18-5, Dose [Inhibitor]: 0, 15 G/L IN DRINKING WATER FOR DURATION OF STUDY BEGINNING 1 D PRIOR TO FIRST CARCINOGEN DOSE (STUDY DURATION: 6 MO), Route [Inhibitor]: ORAL, Species: RAT, Strain/Sex: BD6/FEMALE, Target Tissue: Type of Lesion: LIVER: TUMOR, Dose [Carcinogen]: 80 MG/KG BW 1/WK FOR 10 WK, Promoter: NONE USED) is given as 100%, 92%, 8%, not significant and the “tumour outcome (control, treated, inhibition, significance)” value (Carcinogen: DIETHYLNITROSAMINE, 55-18-5, Dose [Inhibitor]: 0, 15 G/L IN DRINKING WATER FOR DURATION OF STUDY BEGINNING 2 D POST CARCINOGEN TREATMENT (STUDY DURATION: 6 MO), Route [Inhibitor]: ORAL, Species: RAT, Strain/Sex: BD6/FEMALE, Target Tissue: Type of Lesion: ESOPHAGUS: TUMOR, Dose [Carcinogen]: 80 MG/KG BW 1/WK FOR 10 WK, Promoter: NONE USED) is given as 35%, 28%, 20%, not significant. The “tumour outcome (control, treated, inhibition, significance)” value (Carcinogen: DIETHYLNITROSAMINE, 55-18-5, Dose [Inhibitor]: 0, 15 G/L IN DRINKING WATER FOR DURATION OF STUDY BEGINNING 2 D POST CARCINOGEN TREATMENT (STUDY DURATION: 6 MO), Route [Inhibitor]: ORAL, Species: RAT, Strain/Sex: BD6/FEMALE, Target Tissue: Type of Lesion: LIVER: TUMOR, Dose [Carcinogen]: 80 MG/KG BW 1/WK FOR 10 WK, Promoter: NONE USED) was 100%, 100%, 0%, not significant, the “tumour outcome (control, treated, inhibition, significance)” value (Carcinogen: DIETHYLSTILBESTROL, 56-53-1, Dose [Inhibitor]: 1 G/KG OR 2.5 G/KG OF DIET BEGINNING 2 D PRIOR TO FIRST CARCINOGEN IMPLANT AND CONTINUING FOR DURATION OF STUDY (STUDY D, Route [Inhibitor]: ORAL, Species: HAMSTER, Strain/Sex: SYRIAN/MALE, Target Tissue: Type of Lesion: KIDNEY: CARCINOMA, Dose [Carcinogen]: 90% OF 40 MG PELLET (OTHER 10% CHOLESTEROL) 2 D AFTER START OF AGENT TREATMENT AND AGAIN 3 MO LATER, Promoter: NONE USED) was 11/13 (85%), 14/29 (48%), 44%, p<0.05 and the “tumour outcome (control, treated, inhibition, significance)” value (Carcinogen: DIETHYNITROSAMINE, 55-18-5, Dose [Inhibitor]: 0, 3 G/L IN DRINKING WATER FOR DURATION OF STUDY BEGINNING 2 D POST CARCINOGEN TREATMENT (STUDY DURATION: 6 MO), Route [Inhibitor]: ORAL, Species: RAT, Strain/Sex: BD6/FEMALE, Target Tissue: Type of Lesion: LIVER: TUMOR, Dose [Carcinogen]: 80 MG/KG BW 1/WK FOR 10 WK, Promoter: NONE USED) was 100%, 100%, 0%, not significant. For the same compound, the “tumour outcome (control, treated, inhibition, significance)” value (Carcinogen: ETHYLUREA, 625-52-5, SODIUM NITRITE, 7632-00-0, Carcinogen: ETHYLUREA, 625-52-5, SODIUM NITRITE, 7632-00-0, Dose [Inhibitor]: 200 MG/KG BW ADMINISTERED INTRAGASTRICALLY ONCE ON D 15 OF GESTATION SIMULTANEOUSLY WITH CARCINOGEN TREATMENT (STUDY DUR, Route [Inhibitor]: TRANSPLACENTAL, Species: HAMSTER, Strain/Sex: SYRIAN/FEMALE, Target Tissue: Type of Lesion: PERIPHERAL NERVOUS SYSTEM: NEOPLASM, Dose [Carcinogen]: 200 MG ETHYLUREA/KG BW AND 100 MG SODIUM NITRITE/KG BW IG ONCE, Promoter: NONE USED) was 9/18 (50%), 0/18 (0%), 100%, not calculated, the “tumour outcome (control, treated, inhibition, significance)” value (Carcinogen: ETHYLUREA, 625-52-5, SODIUM NITRITE, 7632-00-0, Carcinogen: ETHYLUREA, 625-52-5, SODIUM NITRITE, 7632-00-0, Dose [Inhibitor]: 200 MG/KG BW ADMINISTERED INTRAGASTRICALLY ONCE ON D 15 OF GESTATION SIMULTANEOUSLY WITH CARCINOGEN TREATMENT (STUDY DUR, Route [Inhibitor]: TRANSPLACENTAL, Species: HAMSTER, Strain/Sex: SYRIAN/MALE, Target Tissue: Type of Lesion: PERIPHERAL NERVOUS SYSTEM: NEOPLASM, Dose [Carcinogen]: 200 MG ETHYLUREA/KG BW AND 100 MG SODIUM NITRITE/KG BW IG ONCE, Promoter: NONE USED) was 6/18 (33%), 0/24 (0%), 100%, not calculated and the “tumour outcome (control, treated, inhibition, significance)” value (Carcinogen: FIBERGLASS DUST, Dose [Inhibitor]: 400 MG/KG BW 1/3 D FOR 10 TREATMENTS STARTING 3 D POST CARCINOGEN TREATMENT (STUDY DURATION: 90 D), Route [Inhibitor]: INTRAPERITONEAL, Species: MOUSE, Strain/Sex: STRAIN-A/MALE, Target Tissue: Type of Lesion: LUNG: TUMOR, Dose [Carcinogen]: 300 MG IN 100 G OF STERILIZED PINE SAWDUST BEDDING FOR 30 D, Promoter: NONE USED) was 6/12 (50%), 1/12 (8%), 84%, not calculated. The “tumour outcome (control, treated, inhibition, significance)” value (Carcinogen: N,N-DIETHYLNITROSAMINE, 55-18-5, Dose [Inhibitor]: 4.5 MG/100 KG DIET FOR 58 WK STARTING SIMULTANEOUSLY WITH CARCINOGEN AND PROMOTER TREATMENT AND CONTINUING FOR DURATION, Route [Inhibitor]: ORAL, Species: HAMSTER, Strain/Sex: SYRIAN/MALE, Target Tissue: Type of Lesion: LARYNX: TUMORS, Dose [Carcinogen]: 10 MG (TOTAL DOSE) IN 0.9% SALINE 1/WK FOR 12 WK, Promoter: CIGARETTE SMOKE) was 20/30 (67%), 17/30 (57%), 15%, not significant, the “tumour outcome (control, treated, inhibition, significance)” value (Carcinogen: N,N-DIETHYLNITROSAMINE, 55-18-5, Dose [Inhibitor]: 4.5 MG/100 KG DIET FOR 58 WK STARTING SIMULTANEOUSLY WITH CARCINOGEN AND PROMOTER TREATMENT AND CONTINUING FOR DURATION, Route [Inhibitor]: ORAL, Species: HAMSTER, Strain/Sex: SYRIAN/MALE, Target Tissue: Type of Lesion: NASAL CAVITY: TUMORS, Dose [Carcinogen]: 10 MG (TOTAL DOSE) IN 0.9% SALINE 1/WK FOR 12 WK, Promoter: CIGARETTE SMOKE) was 14/29 (48%), 8/30 (27%), 44%, not significant and the “tumour outcome (control, treated, inhibition, significance)” value (Carcinogen: N,N-DIETHYLNITROSAMINE, 55-18-5, Dose [Inhibitor]: 4.5 MG/100 KG DIET FOR 58 WK STARTING SIMULTANEOUSLY WITH CARCINOGEN AND PROMOTER TREATMENT AND CONTINUING FOR DURATION, Route [Inhibitor]: ORAL, Species: HAMSTER, Strain/Sex: SYRIAN/MALE, Target Tissue: Type of Lesion: TRACHEA: TUMORS, Dose [Carcinogen]: 10 MG (TOTAL DOSE) IN 0.9% SALINE 1/WK FOR 12 WK, Promoter: CIGARETTE SMOKE) was 30/30 (100%), 29/30 (97%), 3%, not significant. For the same compound, the “tumour outcome (control, treated, inhibition, significance)” value (Carcinogen: N-(4-(5-NITRO-2-FURYL)-2-THIAZOLYL)FORMAMIDE, 24554-26-5, Dose [Inhibitor]: 250 MG/100 CC DRINKING WATER STARTING SIMULTANEOUSLY WITH CARCINOGEN TREATMENT AND CONTINUING FOR DURATION OF STUDY (STU, Route [Inhibitor]: ORAL, Species: MOUSE, Strain/Sex: C3H/FEMALE, Target Tissue: Type of Lesion: URINARY BLADDER: TRANSITIONAL CELL CARCINOMA, Dose [Carcinogen]: 0.1% IN DIET FOR DURATION OF STUDY, Promoter: NONE USED) was 41/41 (100%), 12/13 (92%), 8%, p<0.7.
